Values joined by “and” are separate entries in the source; they are usually repeats but may differ in a detail not shown here. Equal values may be shown once. Toxic doses and inconclusive results are not listed. How the source made its calls: active means survival T/C of 150% or more; inactive means T/C below 125% in these data.
Tested on: CD2F1 mice, L1210 leukemia ip, survival T/C
Test: NCI In Vivo Anticancer Drug Screen. Data for tumor model L1210 Leukemia (intraperitoneal) in CD2F1 (CDF1) mice
Settings: higher = longer survival
In short: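 Activity against a transplanted murine tumor was judged by comparing the compound group with a vehicle group. The outcome in the treated animals was divided by that in the controls.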

[1] = endpoint: mean survival time, dose: 100.0 mg/kg/injection, schedule: Q01DX001 (ip), vehicle: saline with Tween-80
[2] = endpoint: mean survival time, dose: 100.0 mg/kg/injection, schedule: Q01DX009 (ip), vehicle: saline with Tween-80
[3] = endpoint: mean survival time, dose: 200.0 mg/kg/injection, schedule: Q01DX009 (ip), vehicle: saline with Tween-80
[4] = endpoint: mean survival time, dose: 400.0 mg/kg/injection, schedule: Q01DX009 (ip), vehicle: saline with Tween-80
[5] = endpoint: mean survival time, dose: 25.0 mg/kg/injection, schedule: Q04DX003 (ip), vehicle: saline with Tween-80
[6] = endpoint: mean survival time, dose: 50.0 mg/kg/injection, schedule: Q04DX003 (ip), vehicle: saline with Tween-80
[7] = endpoint: mean survival time, dose: 100.0 mg/kg/injection, schedule: Q04DX003 (ip), vehicle: saline with Tween-80
[8] = endpoint: mean survival time, dose: 200.0 mg/kg/injection, schedule: Q04DX003 (ip), vehicle: saline with Tween-80
[9] = endpoint: mean survival time, dose: 400.0 mg/kg/injection, schedule: Q04DX003 (ip), vehicle: saline with Tween-80
[10] = endpoint: mean survival time, dose: 50.0 mg/kg/injection, schedule: Q01DX009 (ip), vehicle: saline
[11] = endpoint: mean survival time, dose: 25.0 mg/kg/injection, schedule: Q01DX001 (ip), vehicle: saline with Tween-80
[12] = endpoint: mean survival time, dose: 50.0 mg/kg/injection, schedule: Q01DX001 (ip), vehicle: saline with Tween-80
[13] = endpoint: mean survival time, dose: 100.0 mg/kg/injection, schedule: Q01DX009 (ip), vehicle: saline
[14] = endpoint: mean survival time, dose: 200.0 mg/kg/injection, schedule: Q01DX009 (ip), vehicle: saline

Measured: T/C

O=C(Cl)CCc1cc(Cl)no1
inactive: endpoint: mean survival time, dose: 25.0 mg/kg/injection, schedule: Q04DX003 (ip), vehicle: olive oil, sesame oil, peanut oil 96 % of control | endpoint: mean survival time, dose: 50.0 mg/kg/injection, schedule: Q04DX003 (ip), vehicle: olive oil, sesame oil, peanut oil 96 % of control | endpoint: mean survival time, dose: 100.0 mg/kg/injection, schedule: Q04DX003 (ip), vehicle: olive oil, sesame oil, peanut oil 103 % of control | endpoint: mean survival time, dose: 200.0 mg/kg/injection, schedule: Q04DX003 (ip), vehicle: olive oil, sesame oil, peanut oil 94 % of control | endpoint: mean survival time, dose: 400.0 mg/kg/injection, schedule: Q04DX003 (ip), vehicle: olive oil, sesame oil, peanut oil 103 % of control

O=c1cc(NCCCOc2ccccc2)[nH]c(=O)[nH]1
inactive: [1] 98 % of control | endpoint: mean survival time, dose: 200.0 mg/kg/injection, schedule: Q01DX001 (ip), vehicle: saline with Tween-80 98 % of control | endpoint: mean survival time, dose: 400.0 mg/kg/injection, schedule: Q01DX001 (ip), vehicle: saline with Tween-80 98 % of control

O=C(C[n+]1cccc(C(=O)NCc2ccccc2)c1)NCc1ccccc1
inactive: endpoint: mean survival time, dose: 25.0 mg/kg/injection, schedule: Q04DX003 (ip), vehicle: saline 103 % of control | endpoint: mean survival time, dose: 50.0 mg/kg/injection, schedule: Q04DX003 (ip), vehicle: saline 101 % of control | endpoint: mean survival time, dose: 100.0 mg/kg/injection, schedule: Q04DX003 (ip), vehicle: saline 98 % of control

Oc1ccc(O)cc1
inactive: endpoint: mean survival time, dose: 33.0 mg/kg/injection, schedule: Q01DX009 (ip), vehicle: saline 102 % of control and 103 % of control | endpoint: mean survival time, dose: 75.0 mg/kg/injection, schedule: Q01DX001 (ip), vehicle: saline 107 % of control | endpoint: mean survival time, dose: 75.0 mg/kg/injection, schedule: Q01DX009 (ip), vehicle: saline 120 % of control | endpoint: mean survival time, dose: 113.0 mg/kg/injection, schedule: Q01DX009 (ip), vehicle: saline 96 % of control

Cc1ncc(C(=O)O)n1Cc1ccccc1
inactive: [2] 94 % of control | [3] 94 % of control | [4] 92 % of control

Nc1ncnc(N)c1NC(=O)c1ccc(-c2ccccc2)cc1
inactive: [5] 92 % of control | [6] 94 % of control | [7] 103 % of control

CCOC(=O)CNCC(O)C(Cl)(Cl)Cl (centres undefined)
inactive: [7] 102 % of control | [8] 98 % of control | [9] 96 % of control

O=[N+]([O-])c1ccc(C(F)(F)F)cc1
inactive: [7] 104 % of control | [8] 102 % of control

COc1ccc(-n2c(=O)[nH]c3c(c2=O)C(c2ccc(Cl)cc2)C(C)(C)O3)cc1 (centres undefined)
inactive: endpoint: mean survival time, dose: 100.0 mg/kg/injection, schedule: Q04DX002 (ip), vehicle: saline with Tween-80 100 % of control | endpoint: mean survival time, dose: 200.0 mg/kg/injection, schedule: Q04DX002 (ip), vehicle: saline with Tween-80 95 % of control | endpoint: mean survival time, dose: 400.0 mg/kg/injection, schedule: Q04DX002 (ip), vehicle: saline with Tween-80 103 % of control

O=C(O)c1cccc(C(=O)O)c1C(=O)O.[NH-]C1CCCCC1[NH-].[Pt+2]
active: endpoint: median survival time, dose: 50.0 mg/kg/injection, schedule: Q04DX003 (ip), vehicle: saline 152 % of control | endpoint: median survival time, dose: 100.0 mg/kg/injection, schedule: Q04DX003 (ip), vehicle: saline 178 % of control and 197 % of control | endpoint: median survival time, dose: 200.0 mg/kg/injection, schedule: Q04DX003 (ip), vehicle: saline 282 % of control and 375 % of control
inactive: endpoint: median survival time, dose: 3.12 mg/kg/injection, schedule: Q04DX003 (ip), vehicle: saline 102 % of control and 109 % of control | endpoint: median survival time, dose: 6.25 mg/kg/injection, schedule: Q04DX003 (ip), vehicle: saline 114 % of control and 103 % of control | endpoint: median survival time, dose: 12.5 mg/kg/injection, schedule: Q04DX003 (ip), vehicle: saline 115 % of control and 108 % of control | endpoint: median survival time, dose: 25.0 mg/kg/injection, schedule: Q04DX003 (ip), vehicle: saline 117 % of control

CCOP(=O)(N1CC1(C)C)N1CC1(C)C (centres undefined)
active: endpoint: mean survival time, dose: 30.0 mg/kg/injection, schedule: Q01DX009 (ip), vehicle: saline 162 % of control | [10] 225 % of control | endpoint: mean survival time, dose: 80.0 mg/kg/injection, schedule: Q01DX009 (ip), vehicle: saline 307 % of control
inactive: endpoint: mean survival time, dose: 5.0 mg/kg/injection, schedule: Q01DX009 (ip), vehicle: saline 104 % of control | endpoint: mean survival time, dose: 10.0 mg/kg/injection, schedule: Q01DX009 (ip), vehicle: saline 114 % of control | endpoint: mean survival time, dose: 120.0 mg/kg/injection, schedule: Q01DX009 (ip), vehicle: saline 102 % of control

C=C(C)C(=O)OC1C/C(CO)=C\C(O)C/C(C)=C/C2OC(=O)C(=C)C21 (centres undefined)
inactive: endpoint: mean survival time, dose: 1.25 mg/kg/injection, schedule: Q01DX009 (ip), vehicle: saline + alcohol 103 % of control and 104 % of control | endpoint: mean survival time, dose: 2.5 mg/kg/injection, schedule: Q01DX009 (ip), vehicle: saline + alcohol 116 % of control and 101 % of control | endpoint: mean survival time, dose: 3.75 mg/kg/injection, schedule: Q01DX009 (ip), vehicle: saline + alcohol 114 % of control | endpoint: mean survival time, dose: 5.0 mg/kg/injection, schedule: Q01DX009 (ip), vehicle: saline + alcohol 113 % of control and 123 % of control | endpoint: mean survival time, dose: 7.5 mg/kg/injection, schedule: Q01DX009 (ip), vehicle: saline + alcohol 114 % of control | endpoint: mean survival time, dose: 10.0 mg/kg/injection, schedule: Q01DX009 (ip), vehicle: saline + alcohol 110 % of control | endpoint: mean survival time, dose: 15.0 mg/kg/injection, schedule: Q01DX009 (ip), vehicle: saline + alcohol 106 % of control | endpoint: mean survival time, dose: 20.0 mg/kg/injection, schedule: Q01DX009 (ip), vehicle: saline + alcohol 122 % of control | endpoint: mean survival time, dose: 30.0 mg/kg/injection, schedule: Q01DX009 (ip), vehicle: saline + alcohol 120 % of control | endpoint: mean survival time, dose: 40.0 mg/kg/injection, schedule: Q01DX009 (ip), vehicle: saline + alcohol 97 % of control

CCCCCCCCCCCCC(=O)OC
inactive: [2] 107 % of control | [3] 106 % of control | [4] 105 % of control

O=C1C2C3SC(c4nc5ccccc5cc43)C2C(=O)N1c1ccccc1 (centres undefined)
inactive: [11] 92 % of control | [12] 92 % of control

O=C(CCCCCCCCC(=O)OO)OO (tested in a mixture with another compound)
inactive: [2] 96 % of control

CC(=O)c1ccc(N=C=O)cc1
inactive: [11] 100 % of control | [12] 88 % of control | [1] 92 % of control

COC1C(O)C(CO)OC1n1cc(F)c(=O)[nH]c1=O (centres undefined)
inactive: [10] 104 % of control | [13] 100 % of control | [14] 115 % of control

COc1cccc(C2=CCCCCC2)c1OC
inactive: [7] 98 % of control | [8] 101 % of control | [9] 102 % of control

O=C(Nc1ncccn1)Nc1cc([N+](=O)[O-])ccc1F
inactive: endpoint: mean survival time, dose: 50.0 mg/kg/injection, schedule: Q01DX009 (ip), vehicle: Klucel (hydroxypropylcellulose) (HPC) 93 % of control | endpoint: mean survival time, dose: 100.0 mg/kg/injection, schedule: Q01DX009 (ip), vehicle: Klucel (hydroxypropylcellulose) (HPC) 96 % of control | endpoint: mean survival time, dose: 200.0 mg/kg/injection, schedule: Q01DX009 (ip), vehicle: Klucel (hydroxypropylcellulose) (HPC) 98 % of control

CCCCN(C)N=Nc1cccnc1
inactive: endpoint: mean survival time, dose: 13.0 mg/kg/injection, schedule: Q01DX009 (ip), vehicle: saline 90 % of control | endpoint: mean survival time, dose: 19.0 mg/kg/injection, schedule: Q01DX009 (ip), vehicle: saline 109 % of control | endpoint: mean survival time, dose: 28.0 mg/kg/injection, schedule: Q01DX009 (ip), vehicle: saline 109 % of control | endpoint: mean survival time, dose: 42.0 mg/kg/injection, schedule: Q01DX009 (ip), vehicle: saline 92 % of control

CC(Br)C(=O)NC(C)C(=O)O (centres undefined)
inactive: [7] 92 % of control | [8] 108 % of control | [9] 121 % of control

N#CCCOCCC#N
inactive: [13] 100 % of control | [14] 98 % of control | endpoint: mean survival time, dose: 400.0 mg/kg/injection, schedule: Q01DX009 (ip), vehicle: saline 102 % of control

Cn1c(=O)[nH]c2c(c1=O)CCO2
inactive: endpoint: mean survival time, dose: 100.0 mg/kg/injection, schedule: Q01DX001 (ip), vehicle: saline 103 % of control | endpoint: mean survival time, dose: 200.0 mg/kg/injection, schedule: Q01DX001 (ip), vehicle: saline 97 % of control | endpoint: mean survival time, dose: 400.0 mg/kg/injection, schedule: Q01DX001 (ip), vehicle: saline 100 % of control

Fc1c(F)c(F)[c]([Sn]([c]2ccccc2)([c]2ccccc2)[c]2ccccc2)c(F)c1F
inactive: endpoint: mean survival time, dose: 12.5 mg/kg/injection, schedule: Q04DX003 (ip), vehicle: saline with Tween-80 88 % of control | [5] 88 % of control

O=[N+]([O-])c1ccc(N/N=C2/C3CCC(C3)C2C(O)(C(F)(F)F)C(F)(F)F)c([N+](=O)[O-])c1 (centres undefined)
inactive: [6] 94 % of control | [7] 95 % of control | [8] 94 % of control | [9] 103 % of control

— PubChem BioAssay AID256 (DTP/NCI, 2004)
